{"source": "patent US20250241328A1", "about": "“REDUCTANT TREATMENT METHODS FOR FOOD PRODUCT PRECURSORS” (Impossible Foods Inc., priority 2022, published 2025)", "key": {"[1]": {"test": "Colorimetric properties (L*c*h) of LegH Prep after HTST", "format": "physicochemical", "settings": "HTST 20 seconds, 68-72° C.", "description": "This color decline is due to LegH denaturation as well as potentially off-color formation produced by Pichia proteins in response to heat. […] FIG. 6 was performed at 15 mM cysteine, a temperature of 65° C., and a duration of 20 seconds. Performing HTST in the presence of cysteine results in less change in both chroma and hue angle show a decrease after HTST compared to performing HTST in the absence of cysteine."}, "[2]": {"test_system": "aerobic plate count (gram negative and gram positive bacteria)", "test": "Refrigerated shelf-life study of HTST-treated soy leghemoglobin, aerobic plate count", "format": "cell-based", "settings": "HTST-treated soy leghemoglobin (LegH)", "text": "APC captures both gram negative and gram positive bacteria, whereas lactic acid bacteria (LAB) captures gram positive bacteria (FIG. 1B)."}, "LegH": {"target": "T1, LegH (Glycine max, UniProt P02236)", "T1 construct": "made in house; host or cells: Pichia", "T1 sequence (P02236 whole entry)": "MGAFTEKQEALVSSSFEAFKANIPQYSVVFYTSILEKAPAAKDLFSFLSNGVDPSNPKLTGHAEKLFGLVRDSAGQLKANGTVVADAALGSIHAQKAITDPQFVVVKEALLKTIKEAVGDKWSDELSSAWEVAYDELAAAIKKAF", "test": "LegH concentration after HTST of LegH Prep by UPLC (thermostability)", "format": "physicochemical, soy", "settings": "HTST 20 seconds, 68-72° C.", "description": "This decrease in concentration is due to LegH aggregating or denaturing in response to heat. […] For UPLC, there is a resolved peak at the LegH retention time that can be tracked by 415 nm absorbance but the integration is performed on the 280 nm peak at that position."}, "bacterial bioburden": {"test_system": "bacterial bioburden", "test": "Bacterial bioburden of heme samples following HTST treatment", "format": "cell-based", "settings": "15 mM and 35 mM cysteine, heme samples at pH 9.5"}, "Listeria": {"test_system": "Listeria", "test": "Pathogen reduction during HTST in leghemoglobin samples", "format": "cell-based", "settings": "cysteine treatment during HTST", "text": "(§1) Salmonella and E. coli are gram negative bacteria, and Listeria is gram positive. Addition of cysteine reduced the CFU/g of E. coli even in the absence of heat.\n(§2) FIGS. 2A, 2B, and 2C are tables showing the reduction of pathogens in leghemoglobin samples with and without cysteine."}, "Salmonella": {"test_system": "Salmonella", "test": "Pathogen reduction during HTST in leghemoglobin samples", "format": "cell-based", "settings": "cysteine treatment during HTST", "text": "as §1, §2"}, "E. coli": {"test_system": "E. coli", "test": "Pathogen reduction during HTST in leghemoglobin samples", "format": "cell-based", "text": "as §1, §2"}, "[3]": {"test": "Percent suspended solids after HTST of LegH Prep", "format": "physicochemical", "settings": "HTST 20 seconds, 68-72° C.", "text": "Suspended solid formation is likely due to aggregation or denaturation of the Pichia proteins within LegH Prep in response to heat. […] Increased suspended solids changes the physical properties of the protein solution and are typically associated with increased viscosity."}}}
{"smiles": "N[C@@H](CS)C(=O)O", "note": "[cysteine, L-cysteine]", "values": [{"measurement": "decline in L*c*h after HTST", "setting": "[1]", "value": "diminished in a dose-dependent manner"}, {"measurement": "aerobic plate count (APC) stability", "setting": "[2]", "value": "cysteine-dependent increase"}, {"measurement": "decrease in LegH concentration after HTST", "setting": "LegH", "value": "diminished in a dose-dependent manner"}, {"measurement": "bacterial bioburden CFU/g following HTST treatment", "setting": "bacterial bioburden", "value": "decreases bacterial bioburden"}, {"measurement": "CFU/g reduction of Listeria", "setting": "Listeria", "value": "significantly increased"}, {"measurement": "CFU/g reduction of Salmonella", "setting": "Salmonella", "value": "significantly increased"}, {"measurement": "CFU/g reduction of E. coli", "setting": "E. coli; cysteine treatment during HTST", "value": "significantly increased"}, {"measurement": "CFU/g of E. coli", "setting": "E. coli; in the absence of heat", "value": "reduced"}, {"measurement": "increase in percent suspended solids (% SS) after HTST", "setting": "[3]", "value": "diminished in a dose-dependent manner"}]}
